Data published in patent publication US6919441B2, “Polyamide-oligonucleotide derivatives, their preparation and use” (Aventis Pharma Deutschland GmbH, priority 1995, dated 2005).
In the oligonucleotide strings, read from the 5' end, every base follows the letter of its sugar. An asterisk marks phosphorothioate; unmarked linkages are phosphodiester. Other units and linkages are bracketed, terminal groups are in braces. A string of capitals states the bases alone. d = 2'-deoxy (DNA)

What was measured:
complementary DNA = test: Melting temperature (TM) with complementary DNA; type: binding; conditions: 10 mM HEPES, 140 mM NaCl, pH 7.5
Method: (§1) The melting temperatures are determined using an HP 8452A diode array spectrophotometer, an HP 89090A Peltier element and the HP temperature control software Rev.B5.1 (from Hewlett Packard). Measurements are carried out in 0.5° C./min steps in 10 mM HEPES and 140 mM NaCl (pH 7.5) as buffer. The oligomer concentration is 0.5 to 1 OD260 per ml.

[1] = test system: complementary RNA (T = U); test: Melting temperature (TM) with complementary RNA; type: binding; conditions: ap; 3′-TGT AGT ACC AGC-5′ (T = U); 10 mM HEPES, 140 mM NaCl, pH 7.5
Method: as §1

[2] = test system: Ha-ras protein expression; test: Anti-Ha-ras activity, Western blot in RS485 cells; type: cell-based
Method: RS485 cells (40-60% confluency) were either treated with the PNS_DNA chimera alone or transfected with PNA-DNA chimera using Lipofectin™ Reagent and the protocol from Life Technologies. Briefly, varying concentrations of oligomers were diluted in 100 μl of serum-free medium. In a separate tube Lipofectin was added to serum-free medium at a concentration of 7 μl/100 μl. After 30 minutes at room temperature, 100 μl of Lipofectin solution was mixed with 100 μl of ODN solution, incubated for an additional 15 minutes at room temperature, and mixed with 800 μl of serum-free medium. Cells were washed two times with serum-free medium, and the total solution (1 ml) containing the ODN-Lipofectin complex was overlayed onto the cells. After 6 hours, 1 ml of fresh medium containing 8 mM L-glutamine and 20% calf serum was added, and the cells were incubated for an additional 38 hours. Treated cells were washed with PBS, harvested with trypsin, and cellular proteins were extracted. The ras Protein was then determined by Western Blot Analysis. Total cellular protein was prepared by lysing cells in RIPA buffer with freshly added inhibitors (PMSF, aprotinin, sodium orthovanadate) and homogenizing through 21-gauge needles according to the protocol provided by Santa Cruz Biotechnology, Inc. The extracts were cleaned by centrifugation at 15,000 xg for 20 min at 4° C. and the protein concentration of the supernatant was determined. 40 μg of protein was size fractionated in 5-12.5% PAGE and electroblotted onto a nitrocellulose membrane. The membrane was incubated with primary antibody against Ha-Ras (C-20) (Santa Cruz Biotechnology, Inc.) and then with Horseradish Peroxidase-conjugated goat anti-rabbit immunoglobulin G. The ECL chemo-luminescent Western system (Amersham, Arlington Heights, Ill.) was used to detect secondary probes.

[3] = test system: VEGF (vascular endothelial growth factor); test: Inhibition of VEGF expression (ELISA of culture supernatants); type: cell-based, human
Method: Cell Culture: Normal human epidermal keratinocytes (NHEK cells) were grown in KGM growth medium (Clonetics).
Both human estrogen responsive breast tumor (MCF-7) cells and human estrogen-independent breast tumor (MDA-MB-231) cells were grown in IMEM (Biofluids) supplemented with 10% FBS (Gibco-BRL) and 1:100 antibiotic-antimycotic (Gibco-BRL).
Cellular assays: NHEK cells were seeded at a density of ˜50,000 cells per well in 48-well plates in 0.5 ml of KGM growth medium (Clonetics) and incubated in humidified incubators at 37° C. The following day, the growth medium was replaced with fresh medium containing the PNA-DNA chimera alone or as mixture with Cellfectin, a cationic lipid uptake enhancer for nucleic acids (Life Technologies). Incubation of cells with the oligomer formulation was followed by a wash after 4 hours and cells were returned to fresh unsupplemented medium. Sixteen and/or 40 hr post-stimulation the culture supernatants were removed and used for ELISA, or saved at −80° C. for future analysis. To assay MCF-7 or MDA-MB-231 cells. MCF-7/MDA-MB-231 cells were seeded at a density of ˜100,000 cells per well plates in 0.5 ml of IMEM and incubated under standard conditions. […] VEGF protein levels in the supernatant were determined using a commercially available ELISA kit (R&D Systems).

[4] = test system: DNA double strand (homopurine motif); test: Binding as triplex-forming oligonucleotide to double-stranded DNA
[5] = Stability of the oligomer in medium containing cells; type: in vitro ADME
Method: Vero cells are incubated in DMEM, 5% FCS, in 96-well microtiter plates at 37° C. for 24 hours. After removal of the medium, the cells are washed twice with serum-free DMEM. The radioactively labeled oligomer (10^6 cpm) is diluted with unlabeled oligomer to a concentration of 10 μM in serum, and the cells are incubated at 37° C. therewith. 150 μl portions are removed after 1, 7 and 24 hours (called “supernatant 1”). The cells in the wells of the microtiter plates are washed 7 times with 300 μl of fresh medium, and the combined washing media (called “supernatant 2”) are measured in a scintillation counter. Then 100 μl of trypsin solution are added, 30 seconds are allowed to elapse, and the supernatant is aspirated off. The cells are detached from the plate by incubating at 37° C. for 3 min. The detached cells are transferred into 1.5 ml Eppendorf tubes and centrifuged at 2,000 rpm for 6 minutes (“supernatant 3”). Supernatants 1 (5 μl), 2 and […] (0.5 ml) are each measured separately in a scintillation counter. From this is calculated the uptake of oligomer in pmol per 100,000 cells, with supernatant 3 representing the cell-bound oligomer fraction and the total of supernatants 1 and 2 representing the non-cell-bound oligomer fraction.
Supernatant 1 (10 μl) is mixed with 5 μl of 80% formamide (with Xylenecyanol and bromphenolblue), heated to 95° C. […]

[6] = target: DNA polymerase (Klenow fragment) (Escherichia coli, UniProt P00582); test: DNA polymerase reaction (primer function); type: biochemical; conditions: 22° C. and 37° C., 10% polyacrylamide gel
Text: The following 81-mer oligodeoxynucleotide is used as template for the DNA polymerase reaction: • 5′-GCCCCAGGGAGAAGGCAACTGGACCGAAGGCGCTTGTGGAGAAGGAGTTCATAGCTGGGCTCCCTATAGTGAGTCGTATTA-3′(SEQ ID NO:50)
The sequence of the PNA/DNA primer is: • H-taa tac gac tca cta (5NH-T)-OH 3′(SEQ ID NO:62).
A corresponding oligodeoxynucleotide of the sequence 5′-TAA TAC GAC TCA CTA TAG-3′ (SEQ ID NO:51) is used as control primer.
The primer (0.15 nmol) and the template (0.15 nmol) in 5 μl of 10×PCR buffer ([…], 100 mM tris-HCl, pH 9, 1% Triton X-100, 15 MM MgCl2) are diluted with 35 μl of water and hybridized by heating to 95° C. and cooling. Then 10 μl of 2 mM dNTP mixture (nucleoside 5′-triphosphates) and 3 μl of DNA polymerase (Klenow fragment) are added, and the mixture is incubated at 22° C. and 37° C. for 0.5 hour each. The reaction solution is then analyzed on a 10% polyacrylamide gel (with 1% bis). pBR322/HaeIII digestion is loaded as marker. […] In both cases the double strand migrates […] than the template single strand in the gel electrophoresis.

c-Fos protein expression = test: Inhibition of c-Fos protein expression in the rat (spinal cord superfusion); type: in vivo, Sprague-Dawley rat; conditions: 75 μM, 6 hours, heat stimulation
Text: The determination takes place as described (Sandkühler et al. (1991) in: Proceedings of the VIth World Congress on Pain, Charlton and Woolf, Editors; Elsevier, Amsterdam; pages 313-318) by superfusion of the spinal cord. After laminectomy of a barbiturate-anesthetized Sprague-Dawley rat, a two-chamber container is formed from silicone to receive the antisense oligomer. One chamber is filled with the antisense PNA/DNA derivative, while the other chamber is filled with the control oligomer (concentration of each 75 μM). The superfusate is exchanged in each case after one hour. After superfusion for 6 hours, c-fos expression is stimulated by heat treatment (52° C.) of the rear legs.

COS cells = test: Cellular uptake by fluorescence labeling (fluorescence microscopy); type: cell-based; conditions: 0.1 mM oligomer
Method: COS cells are allowed to grow to confluence in Dulbecco's MEM supplemented with 10% FCS in 5 cm Petri dishes. The cells are washed twice with serum-free DMEM. A sterile needle is used to scratch an area of about 1 cm^2 in the middle of the Petri dish. The PNA/DNA oligomer solution (0.1 mM) to be investigated is applied to this area. Incubation is carried out at 37° C. under a CO2 atmosphere. The cells are investigated by fluorescence microscopy after 2, 4 and 16 hours. For this, the cells are washed four times with serum-free DMEM, covered with a glass slide and assessed under a fluorescence microscope or by phase contrast. A fluorescence-labeled PNA (without DNA part) F-(but)-tttt ttt-hex was investigated as comparison for the PNA/DNA hybrid molecules. After the cells had been incubated with this PNA for two hours, >90% of the cells show signs of pronounced morphological changes and cell death. […] The plasma membrane, the cytosol and the nucleus show no uptake of PNA. […] The situation is different with the DNA/PNA oligomers according to the invention. After incubation of the cells with the DNA/PNA oligomers for only two hours the cells show punctiform intracellular distribution of the PNA/DNA oligomers. The cells suffer no cell death even after prolonged incubation.

[7] = target: RNase L (cellular endoribonuclease L) (Homo sapiens, UniProt Q05823); conditions: HeLa cell extract, 37° C.
Method: An HeLa cell extract was prepared in order to stimulate the activity of cellular endoribonuclease L by the 2′,5′-tetraadenylate-PNA/DNA conjugates.
For investigation of this extract for endonuclease L, initially 0.3 OD of the RNA target sequence is heated with the particular PNA/DNA oligomers at 80° C. for 5 minutes and subsequently cooled to 37° C. for the hybridization. The duplex is mixed with 20 μl of the extract, 1.2 μl of glycerol and RNase L buffer and incubated at 37° C. The total volume is then 70 μl. For the kinetic investigations, samples are removed by pipette at the times of 0, 20 and 60 minutes and heated at 95° C. for 5 minutes to denature the enzymes. The samples are lyophilized in a Speedvac and analyzed by gel electrophoresis.

[8] = antiparallel, 3′-TAG CAG CAT AAT CAG-5′
[9] = parallel, 5′-TAG CAG CAT AAT CAG-3′

Chain of DNA polymerase (Klenow fragment) (P00582 324-928): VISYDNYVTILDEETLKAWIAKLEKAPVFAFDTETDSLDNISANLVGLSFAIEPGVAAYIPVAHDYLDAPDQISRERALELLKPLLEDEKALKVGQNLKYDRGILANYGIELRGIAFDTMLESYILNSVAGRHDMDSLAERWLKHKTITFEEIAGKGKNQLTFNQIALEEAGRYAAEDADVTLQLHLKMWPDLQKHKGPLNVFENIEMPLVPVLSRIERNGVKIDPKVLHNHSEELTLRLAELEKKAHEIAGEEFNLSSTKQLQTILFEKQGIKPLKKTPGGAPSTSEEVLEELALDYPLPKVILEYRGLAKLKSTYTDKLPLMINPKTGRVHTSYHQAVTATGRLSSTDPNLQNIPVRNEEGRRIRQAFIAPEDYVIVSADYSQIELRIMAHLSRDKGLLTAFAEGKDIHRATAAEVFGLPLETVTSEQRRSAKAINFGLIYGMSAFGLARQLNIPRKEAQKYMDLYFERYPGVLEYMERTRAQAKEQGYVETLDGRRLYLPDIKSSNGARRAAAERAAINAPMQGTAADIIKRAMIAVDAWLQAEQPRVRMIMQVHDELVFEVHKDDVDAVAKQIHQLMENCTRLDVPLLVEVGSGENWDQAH
Chain of RNase L (cellular endoribonuclease L) (Q05823 whole entry): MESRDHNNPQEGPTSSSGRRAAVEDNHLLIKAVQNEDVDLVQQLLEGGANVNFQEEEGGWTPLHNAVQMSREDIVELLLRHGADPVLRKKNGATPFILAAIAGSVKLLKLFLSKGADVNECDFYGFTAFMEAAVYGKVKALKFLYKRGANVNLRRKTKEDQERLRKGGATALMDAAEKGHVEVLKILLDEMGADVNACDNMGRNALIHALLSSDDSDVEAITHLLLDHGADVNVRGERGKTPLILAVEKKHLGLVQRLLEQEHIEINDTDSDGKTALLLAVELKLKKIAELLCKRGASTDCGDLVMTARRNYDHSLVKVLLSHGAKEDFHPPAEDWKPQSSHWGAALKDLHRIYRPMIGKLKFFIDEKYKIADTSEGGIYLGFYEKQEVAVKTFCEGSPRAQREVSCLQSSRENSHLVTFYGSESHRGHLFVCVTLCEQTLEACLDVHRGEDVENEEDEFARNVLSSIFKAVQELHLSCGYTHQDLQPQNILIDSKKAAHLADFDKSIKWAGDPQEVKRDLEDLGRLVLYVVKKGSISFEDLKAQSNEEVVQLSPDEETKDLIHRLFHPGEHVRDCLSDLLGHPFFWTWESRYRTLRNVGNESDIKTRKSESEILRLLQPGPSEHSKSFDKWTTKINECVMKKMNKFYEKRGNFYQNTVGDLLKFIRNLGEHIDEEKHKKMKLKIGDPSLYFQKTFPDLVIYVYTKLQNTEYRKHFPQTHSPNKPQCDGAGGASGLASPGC

With “5′-ACA TCA TGG TCG-3′ [5′-ACA TCA TGG TCG-3′ DNA] (ACATCATGGTCG; unmodified DNA) [natural DNA oligonucleotide, reference compound]” the “TM with DNA” value (complementary DNA; ap, 3′-TGT AGT ACC AGC-5′) was 50.7° ° C and the “TM with RNA (T = U)” value [1] was 48.6° ° C.
With “5′-ACA TCA TGG TCG-3′ [5′-ACA TCA TGG TCG-3′ S-DNA] (dA*dC*dA*dT*dC*dA*dT*dG*dG*dT*dC*dG) [reference compound]” the “TM with DNA” value (complementary DNA; ap, 3′-TGT AGT ACC AGC-5′) was 46.7° ° C and the “TM with RNA (T = U)” value [1] was 43.8° ° C.
With “5′-ASTSGS-(Oeg(a))-cgg aata-hex [Example 53]” the “inhibition of ha-ras expression (control oligonucleotides)” value [2] was “did not inhibit”.
For “5′-ATC GTC GTA TT-(Oeg(t))-agtc-hex [Example 18]”, the “TM with DNA” value (complementary DNA; [8]) was “TM = 51.5 °C” and the “TM with DNA” value (complementary DNA; [9]) was “TM < 20 °C”.
With “5′-ATC GTC GTA TT-(but)-agtc-hex [Example 17]” the “TM with DNA” value (complementary DNA; [8]) was “TM = 51.0 °C” and the “TM with DNA” value (complementary DNA; [9]) was “TM < 20 °C”.
For “5′-ATC GTC GTA TTA GTC-3′ (ATCGTCGTATTAGTC; DNA, backbone not given here) [natural DNA oligonucleotide (DNA · DNA duplex), reference compound]”, the “TM with DNA” value (complementary DNA; [8]) was “TM = 50.5 °C”.
With “5′-ATG-(Oeg(a))-cgg aata-hex [Example 52]” the “inhibition of ha-ras expression (control oligonucleotides)” value [2] was “did not inhibit”.
With “5′-CSUSGAUSAG-(Oeg(a))-catccatg-hex [Example 54]” the “highest inhibition of VEGF expression” value ([3]; 1 μM, presence of Cellfectin (10 μg/ml)) was 43% and the “inhibition of VEGF expression” value ([3]; 0.1 to 0.4 μM, absence of Cellfectin) was 10-18%.
For “5′-GG GGG GGG (Oeg(t)) ttt ttt ttt-hex [Example 39]”, the “binding as triplex-forming oligonucleotide to DNA double strand” value [4] was “high affinity”.
With “5′-GGG GGG GGG (but) ttt ttt-hex [Example 28]” the “binding as triplex-forming oligonucleotide to DNA double strand” value [4] was “high affinity”.
In the case of “5′-TSASTS-(Oeg(t))-ccgtcat-hex [Example 51]”, the “inhibition of ha-ras protein expression” value ([2]; 1 μM, in the presence of lipofectin) is reported as “almost complete inhibition”.
Work on “5′-TTT TTT TTT (but) ttt ttt-hex [Example 26]” yielded a stable oligomer ([5]; after an incubation time of 24 hours in medium containing cells) of 69%.
In the case of “(5′)-(Acetyl)-taa tac gac tca cta (eae(t) A-3′ [Example 65]”, the “DNA polymerase reaction product with primer on 81-mer template (gel)” value [6] is reported as “dNTP are polymerized”.
With “A CAT CA (Oeg(t)) ggt cg-hex [Example 31]” the “inhibition of c-fos expression compared with corresponding DNA oligonucleotide and PNA oligomer” value (c-Fos protein expression) was “greater inhibition” and the half-life ([5]; medium containing cells) was 32 h.
For F-(but)-tttt ttt-hex, the “cell death on further/prolonged incubation” value (COS cells; a further two hours or prolonged incubation) was “all the cells have died”, the “cells showing pronounced morphological changes and cell death” value (COS cells; incubated two hours) was > 90% and the “intracellular uptake (fluorescence microscopy)” value (COS cells; two hours) was “no uptake”.
With “PS-rA(2′5′)rA(2′5′)rA(2′5′)rA-spacer-(Oeg(t)tc ctc ctg cgg-hex [Example 37]” the “stimulation of RNase L” value [7] was “stimulates RNase L”.
In the case of “taa tac gac tca cta (5′HN-T) (TAATACGACTCACTA; listed as DNA, chemistry not fully specified) [Example 36, 15 PNA units and one nucleoside unit, primer for DNA polymerase]”, the “DNA polymerase reaction product with primer on 81-mer template (gel)” value [6] is reported as “migrates somewhat more quickly”.
